Earlier results as cited in patent US11332491B2, “E-selectin antagonist compounds, compositions, and methods of use” (GLYCOMIMETICS, INC., priority 2011, dated 2022).

System: human AML engrafted in NODscid IL2Rgc-/- mice
Details: ASH 2011 abstracts

## c1cc(CN2CCCNCCNCCCNCC2)ccc1CN1CCCNCCNCCCNCC1 [plerixafor]
  mobilization of human AML: approximately 2 fold
